Values of other authors as cited in patent publication US8802735B2, “(Z)-2-cyano-3-hydroxy-but-2-enoic acid-(4'-trifluormethylphenyl)-amide tablet formulations with improved stability” (Sanofi, priority 2009, dated 2014).

Target: dihydroorotate dehydrogenase (Homo sapiens, UniProt Q02127)
Conditions: Bruneau J-M, et al., Biochem. J. 1998

Chain of dihydroorotate dehydrogenase (Q02127 whole entry): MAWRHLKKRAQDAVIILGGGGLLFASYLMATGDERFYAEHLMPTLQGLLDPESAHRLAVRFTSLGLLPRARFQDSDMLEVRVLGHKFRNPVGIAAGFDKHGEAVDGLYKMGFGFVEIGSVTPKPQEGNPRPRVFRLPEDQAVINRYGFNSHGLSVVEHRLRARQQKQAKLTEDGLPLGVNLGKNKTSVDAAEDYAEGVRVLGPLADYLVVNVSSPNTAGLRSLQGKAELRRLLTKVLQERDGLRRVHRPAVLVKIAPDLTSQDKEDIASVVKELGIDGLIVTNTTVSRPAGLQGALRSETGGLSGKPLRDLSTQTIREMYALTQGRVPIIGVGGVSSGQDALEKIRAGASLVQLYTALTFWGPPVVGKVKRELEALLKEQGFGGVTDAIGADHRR

inhibition of the enzyme dihydroorotate dehydrogenase: inhibits
Structure (SMILES): C/C(O)=C(\C#N)C(=O)Nc1ccc(C(F)(F)F)cc1 [Teriflunomide, (Z)-2-cyano-3-hydroxy-but-2-enoic acid-(4′-trifluoromethylphenyl)-amide]
